Measurements from patent US10876088B2, “Modular organ microphysiological system with integrated pumping, leveling, and sensing” (Massachusetts Institute of Technology, priority 2016, dated 2020).
One block for each molecule: values may come before it.

How the values were obtained:
[1] = test system: hepatocyte-Kupffer cocultured liver MPS; assay: Hydrocortisone effect on cocultured liver MPS; type: cell-based, human
Method: (§1) Metabolic and immunologically competent 3D cryopreserved human hepatocytes and kupffer cells were cocultured.
The secretions of interleukin 6 (IL-6) and tumor necrosis factor alpha (TNFα) of the cocultured liver MPS were measured. The reproducibility of IL-6 response to LPS stimulus was determined. A physiologically-relevant (relatively low) level of cortisol was used in the common media.

[2] = test system: hepatocyte-Kupffer cell co-cultures; assay: LPS stimulus of hepatocyte-Kupffer co-cultures; type: cell-based, human
[3] = test system: immune-competent gut MPS (Caco2, HT29-MTX, dendritic cells)
endometrium MPS = assay: Drug toxicity in endometrium MPS; type: cell-based
Method: An exemplary endometrium model of cell culture system in a […]® on the MPS platform includes hydrogel encapsulating stromal cells and epithelial cells on top surface of the hydrogel were cultured on the apical side of the […]®. […] The cell line used was Ishikawa human stage 1 adenocarincoma cell line, which were estrogen and progesterone receptor positive, polarized in matrigel (Chitcholtan et al., Exp Cell Research, (2013)) or functionalized PEG gels, and had low/variable secretion of glycodelin. […] The cell line used was human tert-immortalized cell line (tHESC), which was highly proliferative and stable, had low/variable secretion of prolactin or IGF-BP1 without strong decidualization cues, and could be quiesced in PEG gels.
An endometrium MPS model was prepared and studied.

[4] = test system: immune-competent gut-liver interacted MPS; assay: Gut-liver 2-way MPS, tolcapone added to gut ("oral"); type: cell-based, human
Method: Tolcapone was added to the gut MPS to mimick “oral” administration. Metrics were an volume-weighted average from the 3 media compartments: Signalsystemic=Signalapical, gut*Vapical, gut+Signalbasal, gut*Vbasal, gut+Signalliver*Vliver.

[5] = test system: immune-competent liver MPS (hepatocytes and Kupffer cells)
Method: as §1
An immune-competent liver MPS model was prepared and studied.

[6] = oral, in vivo; read-out: maximum measured plasma concentration, Cmax; cited from earlier work
7-way MPS platform = test system: 7-way MPS platform
Method: The 7-way platform include gut (immune-competent), liver (immune-competent), lung, endometrium, cardiac, brain, and pancreas MPSs, and was assessed for survivability and function over a 3-week period. Each MPS was differentiated or matured in isolation prior to the interaction study. Platforms were run at a systemic flow rate of Qmix=10 mL/day, with flow partitioning. During the medium changes, a basal common medium was used for the gut, lung, liver, and endometrium MPSs, while the new MPS were supplied with their preferred maintenance media. Each basal medium was then allowed to mix throughout the course of the interaction, with media changes at 48-hour intervals. Functionality of each MPS was evaluated every 2-4 days up to 3 weeks, in comparison to isolated MPSs to benchmark the non-interacting MPS functions.

[7] = human, in vivo

CYP450 activity dependence on hydrocortisone levels ([1]; 21 day cultures): sensitive
Molecule: C[C@]12CCC(=O)C=C1CC[C@@H]1[C@@H]2[C@@H](O)C[C@@]2(C)[C@H]1CC[C@]2(O)C(=O)CO [Hydrocortisone]
differentiated function ([1]; cocultured liver MPS): enhanced differentiated function
inflammatory response ([1]; cocultured liver MPS): suppressed inflammatory response

Molecule: Lipopolysaccharide
lowest LPS stimulus to which co-cultures were responsive [2]: ≥ 0.01 µg/mL

epithelial barrier integrity / epithelial function [3]: complete loss of epithelial function
gut and liver function [4]: MPS-specific loss of function
mitochondrial activity ([5]; immune-competent liver MPS): decreased mitochondrial activity
Molecule: Cc1ccc(C(=O)c2cc(O)c(O)c([N+](=O)[O-])c2)cc1 [Tolcapone]
cell death [3]: severe cellular death
loss of function and cellular death (endometrium MPS): loss of function correlating with cellular death
generic cell death marker [4]: insensitive
cell death markers ([4]; MPS-specific markers): suffered from MPS-specific cell death markers
cell death ([5]; immune-competent liver MPS): caused cell death

Molecule: O=C(O)Cc1ccccc1Nc1c(Cl)cccc1Cl [Diclofenac, diclofenac]
loss of function and cellular death (endometrium MPS): loss of function correlating with cellular death
Cmax [6]: 2 to 6 µM
absorption and distribution across MPS compartments (7-way MPS platform): absorbed across the gut epithelial barrier
unbound intrinsic clearance CL_int(u) (7-way MPS platform; human): 13.90 µL/min
free drug elimination per cell rate constant [7]: 1.76×10^−10 (cell*min)^−1
liver functions [5]: impaired liver functions
cell death ([5]; immune-competent liver MPS): cell death was minimal
